Values after ≈ are worked out from the molar mass of the structure shown. Read-outs that look alike come from different tables or passages of the source.
Experiments:
MDCK cells [1] = details: dog
MDCK cells [2] = test: MTT cell survival of MDCK cells treated with sample alone (D group, pharmacotoxicity)
influenza virus H1N1 = test: organism not typed; type: cell-based; details: for MIC: read-out: MIC, H1N1
[3] = 6.25 μg/ml, compound and H1N1 at the same time, MDCK (Table 10)
[4] = 10 μg/ml, compound and H1N1 0.01 MOI at the same time, MDCK, 48 hrs (Table 9)
[5] = 12.5 μg/ml, compound and H1N1 at the same time, MDCK (Table 10)
[6] = 25 μg/ml, compound and H1N1 at the same time, MDCK (Table 10)
[7] = 50 μg/ml, compound and H1N1 0.01 MOI at the same time, MDCK, 48 hrs (Table 9)
[8] = 50 μg/ml, compound and H1N1 at the same time, MDCK (Table 10)
[9] = 75 μg/ml, compound and H1N1 at the same time, MDCK (Table 10)
[10] = 100 μg/ml, compound and H1N1 at the same time, MDCK (Table 10)
[11] = influenza virus H1N1, MDCK cells, MTT

| SMILES | pharmaceutical toxicity / cytotoxicity (MDCK cells [1]) | cell survival ratio, D (MDCK cells [2]; 12.5 μg/ml) | cell survival ratio, D + V (influenza virus H1N1; [3]) | cell survival ratio, D + V (influenza virus H1N1; [4]) | cell survival ratio, D + V (influenza virus H1N1; [5]) | cell survival ratio, D + V (influenza virus H1N1; [6]) | cell survival ratio, D + V (influenza virus H1N1; [7]) | cell survival ratio, D + V (influenza virus H1N1; [8]) | cell survival ratio, D + V (influenza virus H1N1; [9]) | cell survival ratio, D + V (influenza virus H1N1; [10]) | MIC (influenza virus H1N1) | cell survival ratio, D (MDCK cells [2]; 6.25 μg/ml) | MIC (influenza virus H1N1; [11]) | MIC, H1N1 (influenza virus H1N1; [11]) |
| --- | --- | --- | --- | --- | --- | --- | --- | --- | --- | --- | --- | --- | --- | --- |
| COc1cc([C@@H]2c3cc(OC)c(O)cc3C(=O)[C@@H](C)[C@H]2C)ccc1O [Wulignan A1] | more than 100 μg/ml | ++++ (key: +/−: cell survival ratio ≦25%; +: >25% but ≦50%; ++: >50% but ≦75%; +++: >75% but ≦100%; ++++: >100%) | ++ (>50% but ≦75%) | ++ (>50% but ≦75%) | +++ (>75% but ≦100%) | ++++ (>100%) | ++++ (>100%) | ++++ (>100%) | ++++ (>100%) | ++++ (>100%) | 12.5 µg/mL (≈ 36.5 µM) | – | – | – |
| COc1cc2c(cc1O)C(=O)[C@@H](C)[C@@H](C)[C@@H]2c1ccc(OC)c(OC)c1 [Schisandrone] | 100 µg/mL | – | + (>25% but ≦50%) | ++ (>50% but ≦75%) | ++++ (>100%) | ++++ (>100%) | ++++ (>100%) | ++++ (>100%) | ++++ (>100%) | +/− (cell survival ratio of ≦25%) | – | ++++ (key: +/−: cell survival ratio ≦25%; +: >25% but ≦50%; ++: >50% but ≦75%; +++: >75% but ≦100%; ++++: >100%) | 12.5 µg/mL (≈ 35.1 µM) | – |
| COc1cc([C@@H]2c3cc(OC)c(O)cc3C(=O)[C@H](C)[C@H]2C)ccc1O [Epiwulignan A1] | more than 100 μg/ml | ++++ (key: +/−: cell survival ratio ≦25%; +: >25% but ≦50%; ++: >50% but ≦75%; +++: >75% but ≦100%; ++++: >100%) | + (>25% but ≦50%) | + (>25% but ≦50%) | – | +++ (>75% but ≦100%) | ++++ (>100%) | ++++ (>100%) | ++++ (>100%) | ++++ (>100%) | – | – | 25 µg/mL (≈ 73 µM) | 25.0 µg/mL (≈ 73 µM) |
| C/C=C(\C)C(=O)O[C@H]1c2cc(OC)c(OC)c(OC)c2-c2c(cc3c(c2OC)OCO3)C[C@H](C)[C@@]1(C)O (atropisomer, axis not shown) [Tigloylgomisin P] | more than 100 μg/ml | – | +/− (cell survival ratio of ≦25%) | +/− (cell survival ratio of ≦25%) | +/− (cell survival ratio of ≦25%) | + (>25% but ≦50%) | +++ (>75% but ≦100%) | ++++ (>100%) | ++++ (>100%) | ++++ (>100%) | – | – | 50 µg/mL (≈ 97.2 µM) | 50.0 µg/mL (≈ 97.2 µM) |
| COc1cc2c(c(OC)c1OC)-c1c(cc3c(c1OC)OCO3)C[C@H](C)[C@@](C)(O)[C@H]2OC(=O)c1ccccc1 (atropisomer, axis not shown) [Benzoylgomisin P] | more than 100 μg/ml | ++++ (key: +/−: cell survival ratio ≦25%; +: >25% but ≦50%; ++: >50% but ≦75%; +++: >75% but ≦100%; ++++: >100%) | ++ (>50% but ≦75%) | +++ (>75% but ≦100%) | – | ++++ (>100%) | ++++ (>100%) | ++++ (>100%) | ++++ (>100%) | ++++ (>100%) | 12.5 µg/mL (≈ 23.3 µM) | – | – | – |
| NC(=O)c1ncn([C@@H]2O[C@H](CO)[C@@H](O)[C@H]2O)n1 [Ribavirin, ribavirin, reference compound] | – | – | – | – | – | – | – | – | – | – | 3.12 µg/mL (≈ 12.8 µM) | – | – | – |

From patent US8414938B2, “Schisandrae fructus extracts for inhibition or prevention of H1N1 influenza virus infection and its application thereof” (National Defense Medical Center, priority 2011, dated 2013)
